One assay concerns the target T1, human ETB receptor (Homo sapiens, UniProt P24530).
T1 construct: expressed in transfected cells; host or cells: COS7 cells
T1 sequence (P24530 27-442): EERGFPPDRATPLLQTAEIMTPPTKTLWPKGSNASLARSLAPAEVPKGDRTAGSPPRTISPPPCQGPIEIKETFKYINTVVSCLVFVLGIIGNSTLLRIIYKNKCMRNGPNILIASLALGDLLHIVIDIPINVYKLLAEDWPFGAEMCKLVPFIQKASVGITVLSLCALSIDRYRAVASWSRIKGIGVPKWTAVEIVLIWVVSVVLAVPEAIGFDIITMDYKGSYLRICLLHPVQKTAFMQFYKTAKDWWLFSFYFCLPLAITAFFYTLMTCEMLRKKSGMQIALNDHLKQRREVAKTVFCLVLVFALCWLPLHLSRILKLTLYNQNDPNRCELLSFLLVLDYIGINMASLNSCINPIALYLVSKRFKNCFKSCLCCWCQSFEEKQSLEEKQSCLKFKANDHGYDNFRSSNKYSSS
Description: Binding Test #2: inhibition of 125I-ET-1 binding to ETB receptors (transfected COS7 cell membranes). The note with it: read-out: ETB. The essentials: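 Competition with 125I-ET-1 for binding to membranes from COS7 cells transfected with human ETB receptor, used at 1 μg/50 μl binding buffer. Membranes prepared in HEPES pH 7.4 with aprotinin, including a DNase/MnCl2 step at 37 °C for 30 min.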

The next assay addresses T2, human ETA receptors (Homo sapiens, UniProt P25101).
T2 construct: endogenous in cells; host or cells: TE 671 cells (ATCC HTB 139)
T2 sequence (P25101 21-427): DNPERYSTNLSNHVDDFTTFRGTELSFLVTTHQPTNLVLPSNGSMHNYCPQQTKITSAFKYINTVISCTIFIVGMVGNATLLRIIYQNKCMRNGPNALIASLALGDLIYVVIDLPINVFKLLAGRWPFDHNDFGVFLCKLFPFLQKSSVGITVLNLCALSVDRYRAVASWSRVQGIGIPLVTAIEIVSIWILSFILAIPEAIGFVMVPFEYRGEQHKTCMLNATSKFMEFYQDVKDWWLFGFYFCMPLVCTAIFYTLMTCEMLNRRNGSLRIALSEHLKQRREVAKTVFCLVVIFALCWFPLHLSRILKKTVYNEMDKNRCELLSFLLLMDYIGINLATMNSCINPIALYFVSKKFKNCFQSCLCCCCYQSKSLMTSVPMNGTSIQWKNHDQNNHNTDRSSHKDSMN
Description: Binding Test #1: inhibition of 125I-ET-1 binding to ETA receptors (TE 671 cell membranes). The note with it: read-out: ETA. The essentials: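 Radioligand competition in triplicate: ¹²⁵I-endothelin-1 displaced by test compound (1 nM–100 μM final) from ETA-bearing TE 671 cell membranes in HEPES pH 7.4 binding buffer with NaCl, MgCl2 and bacitracin. Incubation 16–18 h at 4 °C (or at 24 °C); 80 nM ET-1 defines nonspecific binding; pellet radioactivity gives percent inhibition.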

Setting [1] is: Table 1, † incubation at 24° C.
[2] abbreviates: Table 2, † incubation at 24° C.

Read-outs that look alike come from different tables or passages of the source. Where only a bound is given, the exact number is not on record here.

With `Cc1onc(NS(=O)(=O)c2c(Cc3ccc4c(c3)OCO4)sc3ccccc23)c1Cl` [N-(4-chloro-5-methyl-3-isoxazolyl)-2-[3,4-(methylenedioxy)benzyl]benzo[b]thiophene-3-sulfonamide], the IC50 on human ETB receptor (setting [1]) worked out at 0.364 µM; on human ETA receptors (setting [1]) it was 0.0055 µM.

On to `CCc1ccc(NC(=O)c2sccc2S(=O)(=O)Nc2onc(C)c2Br)cc1` [N-(4-Bromo-3-methyl-5-isoxazolyl)-2-[N-(4-ethylphenyl)aminocarbonyl]thiophene-3-sulfonamide], for which the IC50 was 0.849 µM on human ETB receptor (Table 1, incubation at 4° C.) and 0.0016 µM on human ETA receptors (Table 1, incubation at 4° C.).

`Cc1noc(NS(=O)(=O)c2ccc(C#CC(C)(C)C)s2)c1Br` [N-(4-bromo-3-methyl-5-isoxazolyl)-5-(3,3-dimethylbutyn-1-yl)thiophene-2-sulfonamide]: the IC50 on human ETB receptor (Table 1, incubation at 4° C.) came to 24 µM; on human ETB receptor (setting [1]), 35.5 µM; on human ETA receptors (Table 1, incubation at 4° C.), 1.12 µM; at human ETA receptors (setting [1]), 7.24 µM.

On to “N-(4-bromo-3-methyl-5-isoxazolyl)-1-[3,4-(methylenedioxy)benzyl]indole-2-sulfonamide”, for which the IC50 on human ETB receptor (setting [1]) was found to be 18.6 µM; at human ETA receptors (setting [1]), 5.29 µM.

Turning to `Cc1noc(NS(=O)(=O)c2cc3ccccc3o2)c1C` [N-(3,4-dimethyl-5-isoxazolyl)benzofuran-2-sulfonamide], the IC50 amounted to 38.4 µM on human ETB receptor (Table 1, incubation at 4° C.) and 5.22 µM at human ETA receptors (Table 1, incubation at 4° C.).

As to “N-(4-bromo-3-methyl-5-isoxazolyl)-4′-methoxyphenyl-4-biphenylsulfonamide”, the IC50 at human ETB receptor (Table 2, incubation at 4° C.) amounted to 1.15 ± 0.44 µM; on human ETA receptors (Table 2, incubation at 4° C.) it was 14.7 ± 5.6 µM; at human ETA receptors (setting [2]), 122 ± 2.12 µM.

Regarding `CCCCc1sc2ccccc2c1S(=O)(=O)Nc1onc(C)c1Br` [N-(4-bromo-3-methyl-5-isoxazolyl)-2-butylbenzo[b]thiophene-3-sulfonamide], the IC50 is around 3 µM on human ETB receptor (Table 1, incubation at 4° C.) and 0.0226 µM at human ETA receptors (Table 1, incubation at 4° C.).

Regarding `COC(=O)c1sccc1S(=O)(=O)Nc1onc(C)c1Br` [N-(4-bromo-3-methyl-5-isoxazolyl)-2-(carbomethoxy)thiophene-3-sulfonamide], the IC50 stood at 98.1 µM on human ETB receptor (Table 1, incubation at 4° C.) and 0.0208 µM on human ETA receptors (Table 1, incubation at 4° C.).

`Cc1noc(NS(=O)(=O)c2ccc(Sc3ccccc3)o2)c1Br` [N-(4-bromo-3-methyl-5-isoxazolyl)-5-(phenthio)furan-2-sulfonamide]: the IC50 at human ETB receptor (Table 1, incubation at 4° C.) was determined as 7 µM; on human ETA receptors (Table 1, incubation at 4° C.), 5 µM.

Consider `Cc1noc(NS(=O)(=O)c2ccc(-c3ccccc3)cc2)c1Cl` [N-(4-chloro-3-methyl-5-isoxazolyl)-4-biphenylsulfonamide], for which the IC50 was 0.29 ± 0.1 µM on human ETB receptor (Table 2, incubation at 4° C.) and 4.93 ± 3 µM on human ETA receptors (Table 2, incubation at 4° C.).

As to `Cc1noc(NS(=O)(=O)c2sccc2CC=Cc2cc3c(cc2COC2CCCCO2)OCO3)c1Br` (centres unmarked) [N-(4-bromo-3-methyl-5-isoxazolyl)-3-{2-[(tetrahydro-4H-pyran-2-ylxoy)methyl]-4,5-(methylenedioxy)cinnamyl}thiophene-2-sulfonamide], the IC50 at human ETB receptor (Table 1, incubation at 4° C.) stood at 4.14 µM; on human ETA receptors (setting [1]), 0.0967 µM.

Consider `Cc1ccc(/C=C/c2cc(-c3ccc(C)cc3)sc2S(=O)(=O)Nc2onc(C)c2Br)cc1` [N-(4-bromo-3-methyl-5-isoxazolyl)-3-(4-methyl-trans-styryl)-5-(4-tolyl)thiophene-2-sulfonamide], for which the IC50 on human ETB receptor (setting [1]) turned out to be 1.58 µM; on human ETA receptors (setting [1]) it was 6.9 µM.

`Cc1onc(NS(=O)(=O)c2ccc(-c3ccccc3)cc2)c1Cl` [N-(4-chloro-5-methyl-3-isoxazolyl)-4-biphenylsulfonamide]: the IC50 at human ETB receptor (Table 2, incubation at 4° C.) came out at 0.23 ± 0.01 µM; at human ETB receptor (setting [2]) it was 1.29 µM; on human ETA receptors (Table 2, incubation at 4° C.), 3.7 µM; at human ETA receptors (setting [2]), 18.6 µM.

Turning to `Cc1cc(C)c(NC(=O)c2sccc2S(=O)(=O)Nc2onc(C)c2Cl)c(C)c1CC(=O)O` [N-(4-chloro-3-methyl-5-isoxazolyl)-2-(3-carboxymethyl-2,4,6-trimethylphenylaminocarbonyl)thiophene-3-sulfonamide], the figures for the IC50 on human ETB receptor (setting [1]) and at human ETA receptors (setting [1]) were above 100 µM and 0.0015 µM, respectively.

Take `CCCC#Cc1ccc(S(=O)(=O)Nc2onc(C)c2Br)s1` [N-(4-bromo-3-methyl-5-isoxazolyl)-5-(1-pentynyl)thiophene-2-sulfonamide]: the figures for the IC50 on human ETB receptor (setting [1]) and at human ETA receptors (setting [1]) were 5.6 µM and 29 µM, respectively.

Source of the values: patent US6683103B2, “Sulfonamides for treatment of endothelin-mediated disorders” (Texas Biotechnology Corporation, priority 1997, dated 2004).
